{"source": "patent US5998390A", "about": "“Combination of bisphosphonate and tetracycline” (The Research Foundation of State University of New York, priority 1998, dated 1999)", "key": {"LPS-injected rats [1]": {"test_system": "LPS-injected rats", "experiment": "Tooth mobility in LPS-induced periodontitis rat model", "type": "in vivo", "conditions": "for effect on tooth mobility / effect on pathologic tooth mobility: Examples 1 and 2; for effect on pathologic tooth mobility: 2 mg; for reduction in tooth mobility: Example 3, day 7, vs untreated LPS-injected rats, CMT-8 1 mg/day oral, clodronate 1 mg/week s.c., single agents not statistically significant, combination p<0.05; for tooth mobility relative to the level in saline-injected control rats: Example 3, single agents at sub-optimal dose", "text": "(§1) The activity of combinations of various tetracyclines and bisphosphonates was investigated in vivo. […] This procedure produces marked inflammation in the periodontal tissues and induces elevated levels of tissue-destructive matrix metalloproteinases (MMPs) and serine proteinases such as elastase in the gingiva leading to severe alveolar bone resorption and bone loss around the affected teeth, all within the 7-day experimental protocol. In brief, adult male rats with this experimentally-induced inflammatory disease were either left untreated, or treated with sub-optimal doses of (1) a CMT by itself; (II) a bisphosphonate by itself, or (III) a combination of (I) and (II). At the end of the experimental protocol, tooth mobility and alveolar bone loss, and levels of various tissue destructive MMP collagenases and gelatinases and serine enzymes in the gingiva, were measured.\n(§2) For in vivo Examples, Thirty male Sprague-Dawley rates were distributed into 5 groups as follows:\nGroup 1: Normal. Saline injected+placebo therapy (CMC)\nGroup 2: LPS. LPS injected+placebo (CMC)\nGroup 3: CMT-8. LPS injected+CMT-8 (1 mg/day)\nGroup 4: Clodronate. LPS injected+Clodronate (1 mg/week)\nGroup 5: Combo. LPS+CMT-8 (1 mg/day)+Clodronate (1 mg/week)\n(§3) The treatments were administered by oral gavage once per day (CMT-8) throughout the entire 7 day period, or by a single subcutaneous injection (clodrinate).\n(§4) LPS (lipopolysaccharide)-induced periodontitis rat model: Twenty four hours before treatment, the rats were injected into the upper anterior gingivae and into the palatal papillae between 1st and 2nd upper molars with 10 μL of LPS (1 mg/ml) or saline solution, for a total of 10 μg LPS per site injected. The LPS injections were repeated every other day to complete the three injections.\n(§5) On day 7, all rats were anesthetized, blood samples were collected by cardiac puncture and rats were sacrificed. Tooth mobility was checked and the gingival tissue was dissected and stored at -80° C. for subsequent enzyme analysis. The jaws were defleshed for bone loss determination.\n(§6) The first experiment was designed to select sub-optimal doses of both CMT-8 (a chemically-modified, non-antibacterial tetracycline) and clodronate (a bisphosphonate) in the endotoxin-induced bone loss model. Groups of rats (n=5-6 rats/group) were anesthetized and injected directly into the gingival tissues with either saline (control group) or with LPS endotoxin every other day over a 7-day time period. Twenty-four hours after the first injection, groups of rats were administered by oral gavage either 0, 0.5mg, 1 mg, or 2mg CMT-8 daily for the next 6 days. At the end of the experiment, the rats were anesthetized, blood was drawn by intracardiac puncture, the rats were euthanized and the gingival tissues dissected for enzyme analysis. In addition, tooth mobility was scored and, after defleshing the jaws, alveolar bone loss around the teeth was scored morphometrically using a computer-assisted system.\n(§7) In a third experiment, 30 adult male rats were distributed into the following experimental groups: saline-injected group; groups injected with endotoxin and then administered no drug, CMT-8 alone (1 mg/day), clodronate alone (1 mg/week), or a combination of the same sub-optimal doses of both drugs. The experiment was terminated on day 7. As described above, the gingival tissues were dissected, extracted and the partially-purified extracts analyzed for neutral proteinase (elastase and matrix metalloproteinase) activities, and both tooth mobility and alveolar bone loss were assessed.\nIn FIG. 1, tooth mobility is based on the following scoring system:\n1=slight movement (vestibule-palatal)\n2=medium movement (vestibule-palatal)\n3=severe movement (vertical mobility in and out of socket)"}, "LPS-injected rats [2]": {"test_system": "LPS-injected rats", "experiment": "Alveolar bone loss in LPS-induced periodontitis rat model (morphometric analysis of defleshed jaws)", "type": "in vivo", "conditions": "for effect on pathologic bone loss: 2 mg", "text": "as §1, §2, §3, §4, §5, §6, §7"}, "collagenase": {"test_system": "collagenase", "experiment": "Gingival collagenase activity ([3H-methyl] collagen substrate, SDS-PAGE/fluorography) in extracts from treated LPS-injected rats", "type": "in vivo, rat", "conditions": "Example 3; total collagenase after 1.2 mM APMA activation; vs untreated LPS-injected rats; CMT-8 1 mg/day, clodronate 1 mg/week", "method": "as §4, §5\nas §7, with “assessed. […]” for “assessed.”"}, "[3]": {"target": "T1, Recombinant human MT1 -MMP (MMP-14) (Homo sapiens, UniProt P50281)", "T1 construct": "purchased In Vitro-Tek, Berlin, Germany", "experiment": "β-casein degradation by MT1-MMP", "type": "biochemical", "conditions": "single agent, 2 μM (suboptimal)", "method": "Also, suboptimal inhibitory doses of CMT's and bisphosphonate, alone and in combination, were tested on pure human recombinant MT1 -MMP and MMP-9 activities using a β-casein-degradation assay.\nRecombinant human ([…]) MT1 -MMP (also called MMP-14) (In Vitro-Tek, Berlin, Germany) was pretreated with buffer (none), 2 μM CMT-3 and 2 μM bisphosphonate clodronate (clodrinate) and combinations of 2 μM CMT-3 and 2 μM clodrinate for 1 h at 37° C. Subsequently, substrate β-casein (52 μM) was added to the incubation mixtures, and incubations continued for 60 min at 37° C."}, "osteoclast gelatinase": {"test_system": "osteoclast gelatinase", "experiment": "Inhibition of osteoclast gelatinase ([3H-methyl] gelatin degradation by culture media)", "type": "biochemical, chicken", "method": "Post-incubation media from cultured chicken osteoclasts were partially-purified, then incubated with [^3 H-methyl] gelatin for 4 hours at 37° C. in the presence of 1.2 mM APMA to activate any latent Pro-gelatinase. The incubations were carried out in the presence (or absence) of several different concentrations (0.001-1000 μM) of a bisphosphonate, Didronel (Etidronic Acid); where appropriate, CMT-1 was added at a final concentration of 50 μM. After the 4 hour incubation, the reaction was stopped by the addition of 45% Trichloroacetic acid and carrier gelatin, the mixture was centrifuged, and aliquots of the supernatant, containing the radiolabeled gelatin degradation fragments, were counted in a liquid scintillation spectrometer."}, "[4]": {"conditions": "0.5 mg, CMT-8 daily oral gavage, clodronate single subcutaneous injection"}, "[5]": {"conditions": "1 mg (selected sub-optimal dose)"}, "[6]": {"conditions": "CMT-8 daily oral gavage, clodronate single subcutaneous injection"}, "[7]": {"conditions": "0.5 mg, CMT-8 daily oral gavage, clodronate single subcutaneous injection, Examples 1 and 2"}, "[8]": {"conditions": "1 mg (selected sub-optimal dose), Examples 1 and 2"}, "[9]": {"conditions": "CMT-8 daily oral gavage, clodronate single subcutaneous injection, Examples 1 and 2"}, "[10]": {"conditions": "Example 3, day 7, CMT-8 1 mg/day oral, clodronate 1 mg/week s.c."}}}
{"smiles": "O=P(O)(O)C(Cl)(Cl)P(=O)(O)O", "note": "[clodronate, dichloromethane diphosphonic acid]", "values": [{"measurement": "effect on tooth mobility", "setting": "LPS-injected rats [1]; [4]", "value": "no significant effects"}, {"measurement": "effect on tooth mobility", "setting": "LPS-injected rats [1]; [5]", "value": "either no, or barely detectable beneficial effects"}, {"measurement": "effect on pathologic tooth mobility", "setting": "LPS-injected rats [1]; [6]", "value": "essentially returned the pathologic tooth mobility and bone loss, induced by bacteria endotoxin, to control levels"}, {"measurement": "reduction in tooth mobility", "setting": "LPS-injected rats [1]", "value": 18, "unit": "%"}, {"measurement": "tooth mobility relative to the level in saline-injected control rats", "setting": "LPS-injected rats [1]", "value": "more than twice the level seen in the control rats"}, {"measurement": "effect on alveolar bone loss", "setting": "LPS-injected rats [2]; [7]", "value": "no significant effects"}, {"measurement": "effect on alveolar bone loss", "setting": "LPS-injected rats [2]; [8]", "value": "either no, or barely detectable beneficial effects"}, {"measurement": "effect on pathologic bone loss", "setting": "LPS-injected rats [2]; [9]", "value": "essentially returned the pathologic tooth mobility and bone loss, induced by bacteria endotoxin, to control levels"}, {"measurement": "effect on alveolar bone loss", "setting": "LPS-injected rats [2]; [10]", "value": "reduced alveolar bone loss only slightly, if at all"}, {"measurement": "reduction of gingival collagenase activity", "setting": "collagenase", "value": "22-31%"}, {"measurement": "inhibition of β-casein degradation by MT1-MMP", "setting": "[3]", "value": "relative slight inhibition"}]}
{"smiles": "CC1c2cccc(O)c2C(O)=C2C(=O)[C@]3(O)C(O)=C(C(N)=O)C(=O)C[C@@H]3[C@@H](O)[C@@H]21", "note": "(stereo partly drawn) [CMT-8, 6-deoxy-5α-hydroxy-4-de(dimethylamino)tetracycline]", "values": [{"measurement": "effect on tooth mobility", "setting": "LPS-injected rats [1]; [4]", "value": "no significant effects"}, {"measurement": "effect on tooth mobility", "setting": "LPS-injected rats [1]; [5]", "value": "either no, or barely detectable beneficial effects"}, {"measurement": "effect on pathologic tooth mobility", "setting": "LPS-injected rats [1]; [6]", "value": "essentially returned the pathologic tooth mobility and bone loss, induced by bacteria endotoxin, to control levels"}, {"measurement": "reduction in tooth mobility", "setting": "LPS-injected rats [1]", "value": 18, "unit": "%"}, {"measurement": "tooth mobility relative to the level in saline-injected control rats", "setting": "LPS-injected rats [1]", "value": "more than twice the level seen in the control rats"}, {"measurement": "effect on alveolar bone loss", "setting": "LPS-injected rats [2]; [7]", "value": "no significant effects"}, {"measurement": "effect on alveolar bone loss", "setting": "LPS-injected rats [2]; [8]", "value": "either no, or barely detectable beneficial effects"}, {"measurement": "effect on pathologic bone loss", "setting": "LPS-injected rats [2]; [9]", "value": "essentially returned the pathologic tooth mobility and bone loss, induced by bacteria endotoxin, to control levels"}, {"measurement": "effect on alveolar bone loss", "setting": "LPS-injected rats [2]; [10]", "value": "reduced alveolar bone loss only slightly, if at all"}, {"measurement": "reduction of gingival collagenase activity", "setting": "collagenase", "value": "22-31%"}]}
{"smiles": "NC(=O)C1=C(O)C2(O)C(=O)C3=C(O)c4c(O)cccc4CC3CC2CC1=O", "note": "(stereo not drawn) [CMT-3, 6-demethyl-6-deoxy-4-de(dimethylamino)tetracycline]", "values": [{"measurement": "inhibition of β-casein degradation by MT1-MMP", "setting": "[3]", "value": "relative slight inhibition"}]}
{"smiles": "CC1(O)c2cccc(O)c2C(=O)C2=C(O)C3(O)C(=O)C(C(N)=O)=C(O)CC3CC21", "note": "(stereo not drawn) [CMT-1, 4-de(dimethylamino)tetracycline]", "values": [{"measurement": "inhibition of osteoclast gelatinase activity", "setting": "osteoclast gelatinase; 50 μM CMT-1, 4 hours at 37° C., 1.2 mM APMA", "value": "about 79%"}]}
{"smiles": "CC(O)(P(=O)(O)O)P(=O)(O)O", "note": "[Didronel, Etidronic Acid]", "values": [{"measurement": "inhibition of osteoclast gelatinase activity", "setting": "osteoclast gelatinase; Didronel at 0.001, 0.1, 10, and 1000 μM final concentrations", "value": "did not show any detectable inhibition"}]}
